The values that follow come from patent US9732053B2, “1-[2-(2,4-dimethylphenylsulfanyl) phenyl]piperazine acetate in crystalline form” (LEK PHARMACEUTICALS D.D., priority 2013, dated 2017).

For series [1] the following is noted: room temperature; data from WO 2007/144005 A1 and WO 2010/121621 A1; cited from earlier work.
The nature of series [2]: Slurry experiments in n-heptane for thermodynamic stability (Examples 12-13). It counts as physicochemical. Conditions: room temperature. As to the method: Slurry experiments were performed to determine the order of the thermodynamic stability of the solid state forms at room temperature (see also Examples 12-13 of the present invention).
35 mg of vortioxetine acetate form Ill was suspended in 0.5 mL n-heptane and stirred with a magnetic stirrer at room temperature for 4 weeks.
25 mg of vortioxetine acetate form I was suspended in 0.5 mL n-heptane and stirred with a magnetic stirrer at room temperature for 24 h.

Series [3] in a line: Gravimetric moisture sorption/desorption cycle. It counts as physicochemical. To be noted: for Δm (0-80% RH), water absorption: 25° C.; for Structural changes during moisture sorption: sorption desorption cycle, XRPD. The protocol:
Moisture sorption isotherms were recorded with an SPSx-1μ moisture sorption analyzer (ProUmid, Ulm). The measurement cycle was started at 3% relative humidity (RH). Then the RH was increased from 5% to 75%, decreased to 0% and increased to 80% in 5% steps. Finally the RH was decreased to 0% in 10% steps and equilibrated in a last step to 35%. The time per step was set to a minimum of 1 hour and a maximum of 3 hours. If an equilibrium condition with a constant mass of ±0.01% within 1 hour was reached before the maximum time for all examined samples, the sequential humidity step was applied before the maximum time of 3 hours. If no equilibrium was achieved, the consecutive humidity step was applied after the maximum time of 3 hours. The temperature was 25±0.1° C. The final water content was determined by coulometric Karl Fischer titration.
Coulometric Karl Fischer titration was performed with a Metrohm 831 KF Coulometer equipped with a double-platinum detecting electrode, a Metrohm 832 KF Thermoprep oven (130° C.) and Hydranal Coulomat AK as Karl Fischer reagent.

Series [4] is described as follows: Stress tests at increased relative humidity with XRPD analysis (Examples 10-11). The series is classed as physicochemical. As to the method:
X-ray powder diffractograms (XRPD) were obtained with an X'Pert PRO diffractometer (PANalytical, Almelo, The Netherlands) equipped with a theta/theta coupled goniometer in transmission geometry, programmable XYZ stage with well plate holder, Cu-Kα1,2 radiation source (wavelength 0.15419 nm) and a solid state PIX'cel detector. The diffractograms were recorded at a tube voltage of 45 kV, tube current of 40 mA applying a step size of 0.013° 2-theta with 40 s per step (255 channels) in the angular range of 2° to 40° 2-theta at ambient conditions. A typical precision of the 2-theta values is in the range of about ±0.2° 2-theta. Thus a diffraction peak that appears at 5.0° 2-theta can appear between 4.8 and 5.2° 2-theta on most X-ray diffractometers under standard conditions.
42 mg of vortioxetine acetate form Ill was stressed at 40° C./75% RH for 4 weeks.
34 mg of vortioxetine acetate form Ill were stressed at RT/97% RH for 4 weeks.

The nature of series [5]: Water solubility determination of vortioxetine acetate form III (Example 9). It counts as physicochemical. As to the method: 100 μL water was added to 100.34 mg of vortioxetine acetate form Ill. The mixture was vigorously shaken for 2 min and placed at 25° C. for 15 min. The solid was not completely dissolved, therefore a further 100 μL of water was added and the dissolving procedure repeated. […] According to […]

The mark [6] stands for this setting: listed as acetate form I, acetate.
[7] abbreviates: listed as acetate form III, acetate.

Structures can show the parent of a compound that is named as a salt.

For the molecule `CC(O)C(=O)O.Cc1ccc(Sc2ccccc2N2CCNCC2)c(C)c1` [DL-lactate form β], in series [1], the Aqueous solubility was 8 mg base/mL.

Turning to `Br.Cc1ccc(Sc2ccccc2N2CCNCC2)c(C)c1` [HBr form α], the Aqueous solubility in series [1] is on record as 2 mg base/mL.

As to `Br.Cc1ccc(Sc2ccccc2N2CCNCC2)c(C)c1` [HBr form β], the Aqueous solubility in series [1] is 1.2 mg base/mL.

With `Cc1ccc(Sc2ccccc2N2CCNCC2)c(C)c1` [HCl MH], in series [1], the Aqueous solubility is 2 mg base/mL.

Take `Cc1ccc(Sc2ccccc2N2CCNCC2)c(C)c1.Cl` [HCl]: in series [1], the Aqueous solubility is given as 3 mg base/mL.

On to `CC(O)C(=O)O.Cc1ccc(Sc2ccccc2N2CCNCC2)c(C)c1` [L-lactate form MH2], for which the Aqueous solubility in series [1] is 26 mg base/mL.

Take `Cc1ccc(Sc2ccccc2N2CCNCC2)c(C)c1` [free base, 1-[2-(2,4-Dimethylphenylsulfanyl)phenyl]piperazine]: the Aqueous solubility in series [1] is on record as 0.1 mg base/mL.

Take `CC(=O)O.Cc1ccc(Sc2ccccc2N2CCNCC2)c(C)c1` [vortioxetine acetate form I, 1-[2-(2,4-dimethylphenylsulfanyl)phenyl]piperazine acetate]: the “Structural changes after slurry (XRPD)” value is on record as “transformed to form III” in series [2] (stirred 24 h, acetate) and “undergoes a transition to form III” in series [2] (stirred 24 h, listed as Form I of vortioxetine acetate). Also, the “Δm (0-80% RH), water absorption” value in series [3] (setting [6]) was “+2%”; in series [3] (listed as form I, acetate) it was 2%. For the same molecule, the “Structural changes during moisture sorption” value is “partial decomposition to free base” in series [3] (setting [6]) and “partial decomposition of the acetate salt to the free base” in series [3] (listed as form I, acetate).

Usually solubility stands for the dissolved amount per volume that the medium holds. As for `CC(=O)O.Cc1ccc(Sc2ccccc2N2CCNCC2)c(C)c1` [vortioxetine acetate form III, 1-[2-(2,4-dimethylphenylsulfanyl)phenyl]piperazine acetate], the “Structural changes after slurry (XRPD)” value in series [2] (stirred 4 weeks, acetate) is “does not undergo any transformation”; in series [2] (stirred 4 weeks, listed as vortioxetine acetate form Ill), “no structural changes”. In addition, the “Structural changes after stress (XRPD)” value in series [4] (40° C./75% RH for 4 weeks) and in series [4] (RT/97% RH for 4 weeks) was “no structural changes” in each case. Also, in series [5] (25° C. / room temperature, converted from acetate salt by Equation 1), the “Aqueous solubility calculated as free base” value is listed as 278 mg base/mL. Moreover, the solubility in series [5] (thermodynamic from solid, 25° C., 100.34 mg dissolved in 300 μL, read-out: Solubility of the acetate salt in water) turned out to be 334 mg/mL. Besides, the “Δm (0-80% RH), water absorption” value in series [3] (setting [7]) is given as “+0.4%^”. In series [3] (gravimetric moisture sorption desorption curve, FIG. 6), the “Hygroscopicity according to European Pharmacopoeia” value is recorded as “only slightly hygroscopic”. Besides, the Water content entry is given as “about 0.3%” in series [3] (relative humidity of about 0%); “less than 0.7%” in series [3] (relative humidity of about 80%, acetate); “about 0.7%” in series [3] (relative humidity of about 80%, listed as form III of vortioxetine acetate, acetate). The “Structural changes during moisture sorption” value in series [3] (setting [7]) was “no changes from 0-97% RH”.

As to fumarate, the Aqueous solubility in series [1] was 0.4 mg base/mL.

As for maleate, the Aqueous solubility entry in series [1] is “≈1 mg base/mL”.

For phosphate, in series [1], the Aqueous solubility entry is on record as “≈1 mg base/mL”.
